Literature values in patent US20200078333A1, “Healthier Aging in Domesticated Animals” (priority 2016, published 2020).

Columns and labels:
CB2 [1] = target: T1, CB2 (Homo sapiens, UniProt P34972)
CB1 [2] = target: T2, CB1 (Homo sapiens, UniProt P21554); conditions: read-out: binding affinity to CB1
CB1 [3] = target: T2, CB1; conditions: Ca2+ flux induced by AEA
[4] = healthy as well as unhealthy persons
[5] = target: human CB1 cannabinoid receptors (Homo sapiens, UniProt P21554); conditions: selective binding; function as antagonists/inverse agonists
CB2 [6] = target: T1, CB2; remark: listed apart in the source
[7] = tested on: nitric oxide (NO) production; conditions: read-out: IC50 for inhibition of NO production

T1 sequence (P34972 whole entry, species assumed): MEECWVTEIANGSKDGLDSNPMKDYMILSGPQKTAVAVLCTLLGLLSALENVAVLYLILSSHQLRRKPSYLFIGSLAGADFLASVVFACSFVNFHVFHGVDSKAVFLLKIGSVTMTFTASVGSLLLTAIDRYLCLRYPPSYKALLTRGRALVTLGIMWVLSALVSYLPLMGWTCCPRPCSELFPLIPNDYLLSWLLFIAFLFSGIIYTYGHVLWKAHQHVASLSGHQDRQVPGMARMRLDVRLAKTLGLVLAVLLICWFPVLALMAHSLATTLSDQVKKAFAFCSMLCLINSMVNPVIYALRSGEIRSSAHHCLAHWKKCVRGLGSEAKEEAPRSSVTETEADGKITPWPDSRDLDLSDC
Chain of human CB1 cannabinoid receptors (P21554 whole entry): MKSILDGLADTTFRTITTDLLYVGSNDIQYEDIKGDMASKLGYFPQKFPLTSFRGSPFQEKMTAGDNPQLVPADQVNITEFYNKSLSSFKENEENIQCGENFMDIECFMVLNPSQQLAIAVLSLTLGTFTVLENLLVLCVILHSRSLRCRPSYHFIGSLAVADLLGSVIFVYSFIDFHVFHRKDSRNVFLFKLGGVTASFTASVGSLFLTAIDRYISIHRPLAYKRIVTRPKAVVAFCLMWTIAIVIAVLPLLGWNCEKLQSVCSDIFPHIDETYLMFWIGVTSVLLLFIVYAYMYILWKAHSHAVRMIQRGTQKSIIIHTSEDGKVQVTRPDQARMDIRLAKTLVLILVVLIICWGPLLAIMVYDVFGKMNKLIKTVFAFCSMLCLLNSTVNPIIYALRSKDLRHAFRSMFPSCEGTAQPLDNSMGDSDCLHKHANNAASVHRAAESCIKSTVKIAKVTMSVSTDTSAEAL
T2 sequence (P21554 whole entry, species assumed): as the sequence (P21554 whole entry) above

## CCCCCC=CCCC=CC=CC(=O)N1CCCCC1 [1-[(2E,4E,8Z)-tetradecatrienoyl] piperidine]
CB2 [1]; ratio CB1/CB2
  CB1/CB2 affinity (CB2 selectivity): ~5
CB2 [1]; read-out: binding affinity to CB2
  Ki: 0.16 µM
CB1 [2]
  Ki: 0.8 µM

## CC1(C)[C@@H](O)CC[C@]2(C)[C@H]3C(=O)C=C4[C@@H]5C[C@@](C)(C(=O)O)CC[C@]5(C)CC[C@@]4(C)[C@]3(C)CC[C@@H]12 [18β-glycyrrhetinic acid]
CB1 [3]
  inhibition in responses to CB1 agonist: more than 90%

## COC1=C(OC)C(=O)C(C/C=C(\C)CC/C=C(\C)CC/C=C(\C)CC/C=C(\C)CC/C=C(\C)CC/C=C(\C)CC/C=C(\C)CC/C=C(\C)CC/C=C(\C)CCC=C(C)C)=C(C)C1=O [CoQ10, ubiquinone]
[4]
  tolerated daily dosage: up to 3600 mg

## COc1cc(/C=C/C(=O)CC(=O)/C=C/c2ccc(O)c(OC)c2)ccc1O [curcumin]
[5]
  affinity for human CB1 cannabinoid receptors: nanomolar affinities
CB2 [6]
  affinity for CB2: micromolar affinity

## C=CCc1ccc(O)c(-c2cc(CC=C)ccc2O)c1 [magnolol]
[7]
  IC50: ~6.2 µM

## Oc1ccc(/C=C/c2cc(O)cc(O)c2)cc1 [trans-resveratrol]
[5]
  affinity for human CB1 cannabinoid receptors: nanomolar affinities
